Laboratory results reported in patent EP1299350B1, “SUBSTITUTED BENZAMIDES FOR IMMUNE ENHANCEMENT AND FOR THE TREATMENT OF CANCER, INFECTION AND MANIC-DEPRESSIVE ILLNESS” (Active Biotech AB, priority 2000, dated 2002).

Tested on: AP-1
Test: AP-1-driven luciferase reporter gene assay in Jurkat T cell line (Jurkat/AP-1rep), stimulated with phorbol myristate acetate and ionomycin
Format: cell-based
Details: Jurkat/AP-1rep cells stimulated for 5.5 h at 37°C with phorbol myristate acetate and ionomycin; luciferase luminescence; Figure 1
Description: The compounds of general formula (I) were assayed for AP-1 enhancement. The compounds of this invention were tested in assays for the modulation of stimulated activity of an AP-1-driven reporter gene in the Jurkat T cell line. The activation of this reporter gene results in luciferase production and the amounts of produced luciferase parallels the level of AP-1 activity. A high level of AP-1 activity is pivotal to e.g. high production of IL-2.
Cells from the Jurkat T cell line were transfected with an AP-1-driven luciferase gene reporter construct (Parra et al., 1997) together with a selection gene vector. Selected clones from the resulting stable AP-1 reporter gene transfectants were used in the assays for AP-1 transcription factor activity. These transfected Jurkat cells (Jurkat/AP-1rep) were grown in RPMI 1640 supplemented with glutamine, hepes, sodium pyruvate, gentamicin, 10% FCS and G418. To evaluate distinct compounds for their capacity to enhance the AP-1 activity, Jurkat/AP-1rep cells were stimulated for 5.5 h in the temperature of 37°C with phorbol myristate acetate and ionomycin in the absence and presence of test compounds. The 96 well plates containing the cell cultures were then put on ice until harvested. […] AP-1 activity was measured as luminiscence produced by luciferase substrate, which was added to the wells in conjunction with measurement.

CCN(CC)CCCNC(=O)c1ccc(NC(=O)C(C)C)cc1OC [Compound A, N-[(3-diethylamino)propyl]-4-isobutyrylamino-2-methoxybenzamide]
activity of the AP-1 driven reporter: enhance the activity of the AP-1 driven reporter in a dose dependent fashion down to µM concentrations
